Results taken from ChEMBL document CHEMBL1150937, “Aeruginosin 103-A, a thrombin inhibitor from the cyanobacterium Microcystis viridis” (J Nat Prod, 1998).
Values after ≈ are worked out from the molar mass of the structure shown.

Assays:
[1] = target: Prothrombin (Homo sapiens, UniProt P00734); test: Inhibition of thrombin
[2] = Inhibition of trypsin
[3] = target: Plasminogen (Homo sapiens, UniProt P00747); test: Inhibition of plasmin
Chain of Plasminogen (P00747 97-580 limits assumed): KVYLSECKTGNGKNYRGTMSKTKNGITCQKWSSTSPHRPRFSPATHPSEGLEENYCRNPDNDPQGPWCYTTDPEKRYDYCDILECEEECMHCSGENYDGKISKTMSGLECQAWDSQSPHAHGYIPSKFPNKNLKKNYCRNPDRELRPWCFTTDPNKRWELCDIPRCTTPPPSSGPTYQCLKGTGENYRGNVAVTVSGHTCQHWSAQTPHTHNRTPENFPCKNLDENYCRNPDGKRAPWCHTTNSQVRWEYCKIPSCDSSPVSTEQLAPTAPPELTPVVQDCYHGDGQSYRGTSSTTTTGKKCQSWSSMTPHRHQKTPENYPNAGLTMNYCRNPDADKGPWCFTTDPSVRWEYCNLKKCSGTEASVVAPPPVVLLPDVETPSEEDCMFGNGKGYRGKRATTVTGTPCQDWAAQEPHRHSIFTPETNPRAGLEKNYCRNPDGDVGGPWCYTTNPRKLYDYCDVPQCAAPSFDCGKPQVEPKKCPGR
Chain of Plasminogen (P00747 581-810 limits assumed): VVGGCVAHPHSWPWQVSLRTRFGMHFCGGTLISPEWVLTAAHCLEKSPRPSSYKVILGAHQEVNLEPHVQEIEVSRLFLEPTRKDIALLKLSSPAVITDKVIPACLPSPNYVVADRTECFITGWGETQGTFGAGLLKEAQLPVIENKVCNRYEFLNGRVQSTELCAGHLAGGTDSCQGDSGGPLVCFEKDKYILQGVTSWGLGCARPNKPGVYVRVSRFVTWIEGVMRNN

Q: With `CCO[C@@H]1[C@@H](NC(=O)C2CC3CCC(O)CC3N2C(=O)[C@@H](Cc2ccc(O)cc2)NC(=O)[C@H](O)Cc2ccc(O)cc2)CCCN1C(=N)N` (stereo partly drawn) as the compound, how does the IC50 [1] read?
A: 13.2 µM

Q: What about the IC50 [2] of the same compound?
A: 51 µg/mL (≈ 74.9 µM)

Q: What about the IC50 [3] of the same compound?
A: 99.9 µM
